# In patent US20220125765A1, “PHARMACEUTICAL COMBINATIONS COMPRISING MEBENDAZOLE AND A STRONG OR MODERATE CYP1A2 INHIBITOR” (ZEPHAPHARM LTD, priority 2019, published 2022):
# Where two headings read alike, the source gives them in different places.
# Tests used:
# A2780 = test: 2D monolayer CellTiter-Blue viability, ovarian cancer A2780; assay type: cell-based; details: for Test/Control (%) at Drug Concentration: 72 h; for IC50: Homo sapiens
# Description: (§1) Mebendazole was tested in vitro across a panel of 12 tumor cell lines of ovarian and renal cancer by using a 2D monolayer assay. […] OVXF 899L and RXF 486L are P-gp expressing, multidrug resistant cell lines.
# (§2) Anti-tumor activity is expressed as absolute and relative IC50/70 values, calculated by 4-parameter non-linear curve fit.
# [1] = Stability in human liver microsomes without and with cimetidine or furafylline (Example 4); assay type: in vitro ADME; details: human, liver microsomes, substrate 1 μM
# Description: A minus cofactor control incubation was included for each compound tested where 0.1 M phosphate buffer pH 7.4 was added instead of NADPH (minus NADPH). […] The samples were analysed for mebendazole or phenacetin using LC-MS/MS.
# A minus cofactor control incubation was included for each compound tested where 0.1 M phosphate buffer pH 7.4 was added instead of cofactor (minus NADPH). […] The samples were analysed for mebendazole or phenacetin using LC-MS/MS.
# CYP2C9 = CYP2C9 (Homo sapiens, UniProt P11712); test: Cytochrome P450 reaction phenotyping, recombinant CYP2C9 (Bactosomes)
# CYP2C9, sequence (P11712 whole entry, canonical isoform): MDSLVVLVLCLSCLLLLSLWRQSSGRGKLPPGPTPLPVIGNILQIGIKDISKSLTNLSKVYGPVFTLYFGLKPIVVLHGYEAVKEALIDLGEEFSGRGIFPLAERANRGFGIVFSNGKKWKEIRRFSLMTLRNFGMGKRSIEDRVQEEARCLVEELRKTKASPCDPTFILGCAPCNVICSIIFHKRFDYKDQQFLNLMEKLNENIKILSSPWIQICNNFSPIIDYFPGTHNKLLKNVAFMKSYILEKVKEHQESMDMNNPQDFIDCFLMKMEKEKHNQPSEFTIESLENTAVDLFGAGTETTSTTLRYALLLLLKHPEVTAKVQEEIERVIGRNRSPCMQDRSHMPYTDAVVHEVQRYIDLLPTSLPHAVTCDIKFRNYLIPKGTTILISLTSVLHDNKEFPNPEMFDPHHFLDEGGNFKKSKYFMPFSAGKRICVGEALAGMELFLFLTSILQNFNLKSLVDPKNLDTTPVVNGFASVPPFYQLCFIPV
# Description: Incubations were also performed using control Bactosomes™ (no P450 enzymes present) to reveal any non-enzymatic degradation. Control compounds known to be metabolised specifically by each P450 isoform were included. All incubations were performed singularly for each test compound.
# Incubations were also performed using control Bactosomes™ (no P450 enzymes present) to reveal any non-enzymatic degradation. Control compounds known to be metabolised specifically by each P450 isoform were included. All incubations were performed singularly for each test compound. […] The reactions were stopped by transferring an aliquot of incubate to quench solvent at the appropriate time points, in a 1:3 ratio. The termination plates were centrifuged at 3,000 rpm for 20 min at 4° C. to precipitate the protein.
# SXFS HT-1080 = test: 2D monolayer CellTiter-Blue viability, soft tissue sarcoma HT-1080; assay type: cell-based; details: 72 h
# Description: Seventeen compounds, including mebendazole (Batch no. MKCC1885, Sigma-Aldrich, 100% pure), were tested in vitro across a panel of 8 selected neuroblastoma (NBXF) and 13 selected sarcoma (SXF) derived cell lines by using a 2D monolayer assay. Compounds were tested at […] in half-log increments up to 100 μM and cells were treated for a period of 72 hours. Efficacy of compounds was assessed using CellTiter-Blue® Cell Viability Assay. Anti-tumor activity is expressed as absolute and relative IC50 and IC70 values, calculated by non-linear regression analysis.
# OVCAR-5 = test: 2D monolayer CellTiter-Blue viability, ovarian cancer OVCAR-5; assay type: cell-based; details: for IC50: Homo sapiens; for Test/Control (%) at Drug Concentration: 72 h
# Description: as §1, §2
# [2] = Stability in human cryopreserved hepatocytes without and with cimetidine or furafylline (Example 5); assay type: in vitro ADME; details: human; for hepatocyte CLint at 1 µM: read-out: intrinsic clearance
# Description: The final incubation volume was 500 μL. Two control compounds were included with each species, alongside appropriate vehicle control.
# The samples were analysed for mebendazole or ethoxycoumarin using LC-MS/MS.
# The final incubation volume was 500 μL.
# A positive control compound, ethoxycoumarin, for CYP1A2 was included. […] The samples were analysed for mebendazole or ethoxycoumarin using LC-MS/MS.
# NBXF KELLY = test: 2D monolayer CellTiter-Blue viability, neuroblastoma KELLY; assay type: cell-based; details: 72 h
# Description: Seventeen compounds, including mebendazole (Batch no. […] Efficacy of compounds was assessed using CellTiter-Blue® Cell Viability Assay. Anti-tumor activity is expressed as absolute and relative IC50 and IC70 values, calculated by non-linear regression analysis.
# [3] = pH 7.4, with cimetidine 30 μM, plus 30 μM cimetidine
# [4] = pH 7.4, with cimetidine 100 μM, plus 100 μM cimetidine
# [5] = pH 7.4, with cimetidine 300 μM, plus 300 μM cimetidine
compound,measurement,setting,value
"COC(=O)Nc1nc2ccc(C(=O)c3ccccc3)cc2[nH]1 [Mebendazole, methyl N-(6-benzoyl-1H-benzimidazol-2-yl)carbamate]",Test/Control (%) at Drug Concentration,"A2780; A2780, 1.0E+00 μM",26%
same,Test/Control (%) at Drug Concentration,"A2780; A2780, 1.0E−01 μM",91%
same,Test/Control (%) at Drug Concentration,"A2780; A2780, 1.0E−02 μM",96%
same,Test/Control (%) at Drug Concentration,"A2780; A2780, 1.0E−03 μM",95%
same,Test/Control (%) at Drug Concentration,"A2780; A2780, 1.0E−04 μM",115%
same,Test/Control (%) at Drug Concentration,"A2780; A2780, 3.2E+00 μM",13%
same,Test/Control (%) at Drug Concentration,"A2780; A2780, 3.2E−01 μM",30%
same,Test/Control (%) at Drug Concentration,"A2780; A2780, 3.2E−02 μM",97%
same,Test/Control (%) at Drug Concentration,"A2780; A2780, 3.2E−03 μM",99%
same,Test/Control (%) at Drug Concentration,"A2780; A2780, 3.2E−04 μM",109%
same,Abs. IC70,"A2780; A2780, 72 h",323 nM
same,Rel. IC70,"A2780; A2780, 72 h",231 nM
same,Bot. (%),"A2780; A2780, 72 h, curve fit",19%
same,Top (%),"A2780; A2780, 72 h, curve fit",102%
same,IC50,"A2780; A2780, 72 h, read-out: Abs. IC50",209 nM
same,IC50,"A2780; A2780, 72 h, read-out: Rel. IC50",178 nM
same,half-life at 1 μM,[1]; [3],1.28 h
same,microsomal CLint at 1 μM,[1]; [3],18 µL/min/mg
same,half-life at 1 μM,[1]; [4],1.3 h
same,microsomal CLint at 1 μM,[1]; [4],17.8 µL/min/mg
same,half-life at 1 μM,[1]; [5],1.54 h
same,microsomal CLint at 1 μM,[1]; [5],15 µL/min/mg
same,microsomal CLint at 1 μM,"[1]; pH 7.4, with furafylline 3 μM, plus 3 μM furafylline",2.84 µL/min/mg
same,microsomal CLint at 1 μM,"[1]; pH 7.4, with furafylline 10 μM, plus 10 μM furafylline",0.232 µL/min/mg
same,microsomal CLint at 1 μM,"[1]; pH 7.4, with furafylline 30 μM, plus 30 μM furafylline",0.336 µL/min/mg
same,half-life at 1 μM,"[1]; pH 7.4, no inhibitor",1.04 h
same,microsomal CLint at 1 μM,"[1]; pH 7.4, no inhibitor",22.2 µL/min/mg
same,Compound Remaining (% of 0 min),"CYP2C9; CYP2C9, 5 μM, 0 min",100 % of 0 min
same,Compound Remaining (% of 0 min),"CYP2C9; CYP2C9, 5 μM, 5 min",108 % of 0 min
same,Compound Remaining (% of 0 min),"CYP2C9; CYP2C9, 5 μM, 15 min",108 % of 0 min
same,Compound Remaining (% of 0 min),"CYP2C9; CYP2C9, 5 μM, 30 min",109 % of 0 min
same,Compound Remaining (% of 0 min),"CYP2C9; CYP2C9, 5 μM, 45 min",105 % of 0 min
same,% compound remaining,"CYP2C9; CYP2C9, 5 μM, time not stated",> 87.5%
same,t1/2,"CYP2C9; CYP2C9, substrate 5 μM",>2.25 h
same,half-life at 5 μM,"CYP2C9; human, recombinant CYP2C9 (Bactosomes), pH 7.4",> 2.25 h
same,Test/Control (%) at Drug Concentration,"SXFS HT-1080; HT-1080, 1.0E+00 μM",7%
same,Test/Control (%) at Drug Concentration,"SXFS HT-1080; HT-1080, 1.0E+01 μM",4%
same,Test/Control (%) at Drug Concentration,"SXFS HT-1080; HT-1080, 1.0E+02 μM",1%
same,Test/Control (%) at Drug Concentration,"SXFS HT-1080; HT-1080, 1.0E−01 μM",79%
same,Test/Control (%) at Drug Concentration,"SXFS HT-1080; HT-1080, 1.0E−02 μM",89%
same,Test/Control (%) at Drug Concentration,"SXFS HT-1080; HT-1080, 3.2E+00 μM",4%
same,Test/Control (%) at Drug Concentration,"SXFS HT-1080; HT-1080, 3.2E+01 μM",3%
same,Test/Control (%) at Drug Concentration,"SXFS HT-1080; HT-1080, 3.2E−01 μM",35%
same,Test/Control (%) at Drug Concentration,"SXFS HT-1080; HT-1080, 3.2E−02 μM",79%
same,Test/Control (%) at Drug Concentration,"SXFS HT-1080; HT-1080, 3.2E−03 μM",90%
same,IC50,"OVCAR-5; OVCAR-5, 72 h, read-out: Abs. IC50",865 nM
same,IC50,"OVCAR-5; OVCAR-5, 72 h, read-out: Rel. IC50",732 nM
same,Test/Control (%) at Drug Concentration,"OVCAR-5; OVCAR-5, 1.0E+00 μM",42%
same,Test/Control (%) at Drug Concentration,"OVCAR-5; OVCAR-5, 1.0E−01 μM",90%
same,Test/Control (%) at Drug Concentration,"OVCAR-5; OVCAR-5, 1.0E−02 μM",102%
same,Test/Control (%) at Drug Concentration,"OVCAR-5; OVCAR-5, 1.0E−03 μM",103%
same,Test/Control (%) at Drug Concentration,"OVCAR-5; OVCAR-5, 1.0E−04 μM",102%
same,Test/Control (%) at Drug Concentration,"OVCAR-5; OVCAR-5, 3.2E+00 μM",22%
same,Test/Control (%) at Drug Concentration,"OVCAR-5; OVCAR-5, 3.2E−01 μM",91%
same,Test/Control (%) at Drug Concentration,"OVCAR-5; OVCAR-5, 3.2E−02 μM",95%
same,Test/Control (%) at Drug Concentration,"OVCAR-5; OVCAR-5, 3.2E−03 μM",92%
same,Test/Control (%) at Drug Concentration,"OVCAR-5; OVCAR-5, 3.2E−04 μM",96%
same,Abs. IC70,"OVCAR-5; OVCAR-5, 72 h",1480 nM
same,Rel. IC70,"OVCAR-5; OVCAR-5, 72 h",995 nM
same,Bot. (%),"OVCAR-5; OVCAR-5, 72 h, curve fit",20%
same,Top (%),"OVCAR-5; OVCAR-5, 72 h, curve fit",97%
same,half-life at 1 μM,"[2]; cryopreserved hepatocytes (suspension), in the presence of cimetidine (30-300 μM), read-out: half-life, maximum",≤ 2.32 h
same,half-life at 1 μM,"[2]; cryopreserved hepatocytes (suspension), substrate 1 μM, no inhibitor, read-out: t1/2",1.73 h
same,hepatocyte CLint at 1 µM,"[2]; cryopreserved hepatocytes (suspension), with furafylline 10 µM, substrate 1 μM, 10 μM furafylline",2.43 µL/min/1e6 cells
same,hepatocyte CLint at 1 µM,"[2]; cryopreserved hepatocytes (suspension), with furafylline 30 µM, substrate 1 μM, 30 μM furafylline",1.47 µL/min/1e6 cells
same,half-life at 1 μM,"[2]; cryopreserved hepatocytes (suspension), with furafylline 3-30 µM (maximum half-life over 3, 10 and 30 µM), in the presence of furafylline (3-30 μM), read-out: half-life, maximum",≤ 15.7 h
same,hepatocyte CLint at 1 µM,"[2]; cryopreserved hepatocytes, substrate 1 μM, absence of inhibitor (inhibitor experiment)",13.3 µL/min/1e6 cells
same,hepatocyte CLint at 1 µM,"[2]; cryopreserved hepatocytes, substrate 1 μM, hepatocyte stability investigation (no inhibitor arm)",19.1 µL/min/1e6 cells
same,hepatocyte CLint at 1 µM,"[2]; cryopreserved hepatocytes, with cimetidine 30 μM, substrate 1 μM, 30 μM cimetidine",13.2 µL/min/1e6 cells
same,half-life at 1 μM,"[2]; cryopreserved hepatocytes, with cimetidine 30 μM, substrate 1 μM, cimetidine 30 μM, read-out: t1/2",1.75 h
same,hepatocyte CLint at 1 µM,"[2]; cryopreserved hepatocytes, with cimetidine 100 μM, substrate 1 μM, 100 μM cimetidine",14.7 µL/min/1e6 cells
same,half-life at 1 μM,"[2]; cryopreserved hepatocytes, with cimetidine 100 μM, substrate 1 μM, cimetidine 100 μM, read-out: t1/2",1.57 h
same,hepatocyte CLint at 1 µM,"[2]; cryopreserved hepatocytes, with cimetidine 300 μM, substrate 1 μM, 300 μM cimetidine",9.98 µL/min/1e6 cells
same,half-life at 1 μM,"[2]; cryopreserved hepatocytes, with cimetidine 300 μM, substrate 1 μM, cimetidine 300 μM, read-out: t1/2",2.32 h
same,hepatocyte CLint at 1 µM,"[2]; cryopreserved hepatocytes, with furafylline 3 μM, substrate 1 μM, 3 μM furafylline",3.47 µL/min/1e6 cells
same,half-life at 1 μM,"[2]; cryopreserved hepatocytes, with furafylline 3 μM, substrate 1 μM, furafylline 3 μM, read-out: t1/2",6.65 h
same,half-life at 1 μM,"[2]; cryopreserved hepatocytes, with furafylline 10 μM, substrate 1 μM, furafylline 10 μM, read-out: t1/2",9.5 h
same,half-life at 1 μM,"[2]; cryopreserved hepatocytes, with furafylline 30 μM, substrate 1 μM, furafylline 30 μM, read-out: t1/2",15.7 h
same,Test/Control (%) at Drug Concentration,NBXF KELLY; 1.0E+00 μM,6%
same,Test/Control (%) at Drug Concentration,NBXF KELLY; 1.0E+01 μM,−1%
same,Test/Control (%) at Drug Concentration,NBXF KELLY; 1.0E+02 μM,−1%
same,Test/Control (%) at Drug Concentration,NBXF KELLY; 1.0E−01 μM,91%
same,Test/Control (%) at Drug Concentration,NBXF KELLY; 1.0E−02 μM,99%
same,Test/Control (%) at Drug Concentration,NBXF KELLY; 3.2E+00 μM,−1%
same,Test/Control (%) at Drug Concentration,NBXF KELLY; 3.2E+01 μM,−1%
same,Test/Control (%) at Drug Concentration,NBXF KELLY; 3.2E−01 μM,75%
same,Test/Control (%) at Drug Concentration,NBXF KELLY; 3.2E−02 μM,99%
same,Test/Control (%) at Drug Concentration,NBXF KELLY; 3.2E−03 μM,106%
